Source: the supplement of paper PMC10307832

What was measured:
Assay in all cases: relative viability (nuclei count vs DMSO), 5 days (fraction); higher = more cells survive
NCI-H596 = test system: NCI-H596
Summary of the method: (§1)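 For relative viability, nuclei counts in treated wells were divided by those in vehicle wells. Lung cancer cell lines had been pin-tool dosed in 1536-well plates the day after seeding and cultured for 5 days, then fixed and stained in one step (final 0.05% Triton X-100, 1% formaldehyde, 1 ug/ml Hoechst) and imaged at 4×. Doses were one drug alone or a fixed anchor-drug dose plus five library-drug doses (not always all listed) in √10 steps, and values are duplicate-plate medians.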

HOP-62 = test system: HOP-62
Summary of the method: as §1

NCI-H1944 = test system: NCI-H1944
Summary of the method: as §1

NCI-H1437 = test system: NCI-H1437
Summary of the method: as §1

NCI-H3122 = test system: NCI-H3122
Summary of the method: as §1

COR-L23 = test system: COR-L23
Summary of the method: as §1

NCI-H661 = test system: NCI-H661
Summary of the method: as §1

NCI-H1650 = test system: NCI-H1650
Summary of the method: as §1

NCI-H1395 = test system: NCI-H1395
Summary of the method: as §1

NCI-H2087 = test system: NCI-H2087
Summary of the method: as §1

NCI-H1793 = test system: NCI-H1793
Summary of the method: as §1

NCI-H441 = test system: NCI-H441
Summary of the method: as §1

Cc1csc(=NC2CCCCC2)n1/N=C/c1ccc(O)c(O)c1O [MIM1] + Cc1nc(Nc2ncc(C(=O)Nc3c(C)cccc3Cl)s2)cc(N2CCN(CCO)CC2)n1 [Dasatinib] (partner 0.075 µM)
relative viability (NCI-H596; first compound 0.2 µM): 0.646
relative viability (NCI-H596; first compound 0.6325 µM): 0.651
relative viability (NCI-H596; first compound 2 µM): 0.546
relative viability (NCI-H596; first compound 6.325 µM): 0.61
relative viability (NCI-H596; first compound 20 µM): 0.597
relative viability (HOP-62; first compound 0.2 µM): 0.579
relative viability (HOP-62; first compound 0.6325 µM): 0.696
relative viability (HOP-62; first compound 2 µM): 0.677
relative viability (HOP-62; first compound 6.325 µM): 0.629
relative viability (HOP-62; first compound 20 µM): 0.16
relative viability (NCI-H1944; first compound 0.2 µM): 0.214
relative viability (NCI-H1944; first compound 0.6325 µM): 0.204
relative viability (NCI-H1944; first compound 2 µM): 0.21
relative viability (NCI-H1944; first compound 6.325 µM): 0.191
relative viability (NCI-H1944; first compound 20 µM): 0.176
relative viability (NCI-H1437; first compound 0.2 µM): 0.456
relative viability (NCI-H1437; first compound 0.6325 µM): 0.406
relative viability (NCI-H1437; first compound 2 µM): 0.55
relative viability (NCI-H1437; first compound 6.325 µM): 0.285
relative viability (NCI-H1437; first compound 20 µM): 0.151
relative viability (NCI-H3122; first compound 0.2 µM): 0.779
relative viability (NCI-H3122; first compound 0.6325 µM): 0.717
relative viability (NCI-H3122; first compound 2 µM): 0.882
relative viability (NCI-H3122; first compound 6.325 µM): 0.325
relative viability (NCI-H3122; first compound 20 µM): 0.122
relative viability (COR-L23; first compound 0.2 µM): 0.449
relative viability (COR-L23; first compound 0.6325 µM): 0.552
relative viability (COR-L23; first compound 2 µM): 0.464
relative viability (COR-L23; first compound 6.325 µM): 0.327
relative viability (COR-L23; first compound 20 µM): 0.335
relative viability (NCI-H661; first compound 0.2 µM): 0.997
relative viability (NCI-H661; first compound 0.6325 µM): 0.866
relative viability (NCI-H661; first compound 2 µM): 0.87
relative viability (NCI-H661; first compound 6.325 µM): 0.406
relative viability (NCI-H661; first compound 20 µM): 0.224
relative viability (NCI-H1650; first compound 0.2 µM): 0.304
relative viability (NCI-H1650; first compound 0.6325 µM): 0.316
relative viability (NCI-H1650; first compound 2 µM): 0.24
relative viability (NCI-H1650; first compound 6.325 µM): 0.186
relative viability (NCI-H1650; first compound 20 µM): 0.159
relative viability (NCI-H1395; first compound 0.2 µM): 0.504
relative viability (NCI-H1395; first compound 0.6325 µM): 0.465
relative viability (NCI-H1395; first compound 2 µM): 0.381
relative viability (NCI-H1395; first compound 6.325 µM): 0.443
relative viability (NCI-H1395; first compound 20 µM): 0.303
relative viability (NCI-H2087; first compound 0.2 µM): 0.884
relative viability (NCI-H2087; first compound 0.6325 µM): 0.843
relative viability (NCI-H2087; first compound 2 µM): 1.02
relative viability (NCI-H2087; first compound 6.325 µM): 0.685
relative viability (NCI-H2087; first compound 20 µM): 0.625
relative viability (NCI-H1793; first compound 0.2 µM): 0.417
relative viability (NCI-H1793; first compound 2 µM): 0.372
relative viability (NCI-H1793; first compound 6.325 µM): 0.359
relative viability (NCI-H1793; first compound 20 µM): 0.31
relative viability (NCI-H441; first compound 0.2 µM): 0.522
relative viability (NCI-H441; first compound 2 µM): 0.631
